Where two headings read alike, the source gives them in different places.
Key:
Assay type in all cases: cell-based
TRPML1 = TRPML1 (Homo sapiens, UniProt Q9GZU1); assay: Fluorescent TRPML1 assay (Fluo4-AM calcium fluorescence in doxycycline-induced HEK-293 Trex cells)
Outline: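 HEK-293 Trex cells stably expressing surface-directed mutant human TRPML1, induced with 0.5 µg/mL doxycycline overnight, were loaded with 1 µM Fluo4-AM and added to compound (6 nM–20 µM final, half-log steps, triplicate) in Ringer's with 10 mM calcium. Fluorescence ex 480/em 540; EC50 by non-linear regression versus plate controls.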

TRPML2 = target: T1, TRPML2 (Homo sapiens, UniProt Q8IZK6); assay: Fluorescent TRPML2 assay (performed as for TRPML1, substituting the TRPML2 subtype)
T1 construct: expressed in transfected cells
T1 sequence (Q8IZK6 1-566): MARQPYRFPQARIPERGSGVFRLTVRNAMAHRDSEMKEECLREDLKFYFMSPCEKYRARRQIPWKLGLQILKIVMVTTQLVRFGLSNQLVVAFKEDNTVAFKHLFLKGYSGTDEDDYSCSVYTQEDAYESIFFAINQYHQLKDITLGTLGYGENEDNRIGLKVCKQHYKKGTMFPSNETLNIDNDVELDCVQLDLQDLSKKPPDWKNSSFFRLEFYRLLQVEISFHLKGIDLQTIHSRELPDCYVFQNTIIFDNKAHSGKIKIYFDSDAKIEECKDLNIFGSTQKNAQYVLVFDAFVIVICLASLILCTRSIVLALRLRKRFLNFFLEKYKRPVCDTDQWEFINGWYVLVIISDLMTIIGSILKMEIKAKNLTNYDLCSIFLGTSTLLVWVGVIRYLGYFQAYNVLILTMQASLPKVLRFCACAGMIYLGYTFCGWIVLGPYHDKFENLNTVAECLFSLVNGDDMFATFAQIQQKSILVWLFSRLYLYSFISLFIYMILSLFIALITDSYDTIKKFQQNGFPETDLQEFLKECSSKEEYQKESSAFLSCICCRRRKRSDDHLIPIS
Outline: (§1)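 HEK-293 Trex, dox-induced (0.5 ug/mL), mutated for surface expression. Fluo4-AM 1 micromolar load ~60 min, dark; buffer modified Ringer's, 10 mM Ca. Cpds 20 micromolar–6 nanomolar final, half-log, n=3. Read ex 480/em 540; % activity vs controls; EC50 nonlinear fit.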

TRPML3 = target: T2, TRPML3 (Homo sapiens, UniProt Q8TDD5); assay: Fluorescent TRPML3 assay (performed as for TRPML1, substituting the TRPML3 subtype)
T2 construct: expressed in transfected cells
T2 sequence (Q8TDD5 1-553): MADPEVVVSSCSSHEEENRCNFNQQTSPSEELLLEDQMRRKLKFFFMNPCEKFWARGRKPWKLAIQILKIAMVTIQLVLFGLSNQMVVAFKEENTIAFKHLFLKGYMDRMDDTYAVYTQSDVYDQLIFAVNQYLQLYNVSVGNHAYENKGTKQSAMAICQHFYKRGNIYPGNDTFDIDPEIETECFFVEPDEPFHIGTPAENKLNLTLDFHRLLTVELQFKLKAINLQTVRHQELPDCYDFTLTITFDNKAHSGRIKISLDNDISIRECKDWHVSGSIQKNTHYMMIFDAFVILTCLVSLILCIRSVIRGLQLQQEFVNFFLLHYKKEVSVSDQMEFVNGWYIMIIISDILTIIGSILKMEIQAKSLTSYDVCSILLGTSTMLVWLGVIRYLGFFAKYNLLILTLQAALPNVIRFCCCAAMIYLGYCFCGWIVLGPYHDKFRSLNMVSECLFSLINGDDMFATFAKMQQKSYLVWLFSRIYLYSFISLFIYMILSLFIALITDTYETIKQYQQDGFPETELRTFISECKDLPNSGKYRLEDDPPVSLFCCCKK
Outline: as §1

Sequence of TRPML1 (Q9GZU1 whole entry L15A/L16A/L577A/L578A, form open): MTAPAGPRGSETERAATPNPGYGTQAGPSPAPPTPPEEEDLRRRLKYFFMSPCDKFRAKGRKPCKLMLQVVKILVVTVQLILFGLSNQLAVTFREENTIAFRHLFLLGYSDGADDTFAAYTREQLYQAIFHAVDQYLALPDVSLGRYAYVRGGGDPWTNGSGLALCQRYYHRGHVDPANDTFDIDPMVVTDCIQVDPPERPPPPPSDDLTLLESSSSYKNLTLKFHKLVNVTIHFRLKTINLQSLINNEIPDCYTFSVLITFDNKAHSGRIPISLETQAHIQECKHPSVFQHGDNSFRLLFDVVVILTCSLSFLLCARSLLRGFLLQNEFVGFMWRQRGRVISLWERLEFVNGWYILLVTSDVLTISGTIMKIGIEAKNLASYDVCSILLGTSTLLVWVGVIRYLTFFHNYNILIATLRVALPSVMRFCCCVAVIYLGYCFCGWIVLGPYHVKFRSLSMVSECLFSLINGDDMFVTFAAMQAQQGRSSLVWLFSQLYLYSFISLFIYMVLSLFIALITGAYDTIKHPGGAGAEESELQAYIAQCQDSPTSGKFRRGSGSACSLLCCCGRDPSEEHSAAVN

## [2H]C([2H])([2H])C(OC(=O)N1C[C@H](C)N(c2nccc3c2c(C(F)(F)F)cn3-c2cc(C#N)ccn2)C[C@H]1C)(C([2H])([2H])[2H])C([2H])([2H])[2H] [Compound 623, 2-(methyl-d3)propan-2-yl-1,1,1,3,3,3-d6 (2R,5S)-4-(1-(4-cyanopyridin-2-yl)-3-(trifluoromethyl)-1H-pyrrolo[3,2-c]pyridin-4-yl)-2,5-dimethylpiperazine-1-carboxylate]
TRPML1
  EC50: < 100 nM
TRPML2
  EC50: 500 to 2000 nM
TRPML3
  EC50: < 100 nM

## C[C@@H]1CN(c2ncnc3c2c(C(F)(F)F)cn3-c2cccc(F)c2)[C@@H](C)CN1C(=O)OC(C)(C)C [Compound 496, tert-butyl (2R,5S)-4-(7-(3-fluorophenyl)-5-(trifluoromethyl)-7H-pyrrolo[2,3-d]pyrimidin-4-yl)-2,5-dimethylpiperazine-1-carboxylate]
TRPML1
  EC50: < 100 nM
TRPML2
  EC50: 100 to 500 nM
TRPML3
  EC50: < 100 nM

## C[C@H]1COCCN1c1cn(-c2cccc(C#N)c2)c2ncnc(N3CCN(C(=O)OC(C)(C)C)C[C@@H]3C)c12 [Compound 379, tert-butyl (S)-4-(7-(3-cyanophenyl)-5-((S)-3-methylmorpholino)-7H-pyrrolo[2,3-d]pyrimidin-4-yl)-3-methylpiperazine-1-carboxylate]
TRPML1; fluorescent calcium assay
  EC50: 500 to 2000 nM
TRPML2; fluorescent calcium assay
  EC50: > 2000 nM
TRPML3; fluorescent calcium assay
  EC50: 500 to 2000 nM

## Cc1c(Cl)cccc1-n1cc(-c2cnccn2)c2c(N3CCN(C(=O)OC(C)(C)C)CC3C)ncnc21 (stereo not drawn) [Compound 162, tert-butyl 4-(7-(3-chloro-2-methylphenyl)-5-(pyrazin-2-yl)-7H-pyrrolo[2,3-d]pyrimidin-4-yl)-3-methylpiperazine-1-carboxylate]
TRPML1; fluorescent calcium assay
  EC50: 500 to 2000 nM
TRPML2; fluorescent calcium assay
  EC50: 500 to 2000 nM
TRPML3; fluorescent calcium assay
  EC50: 100 to 500 nM

## C[C@@H]1CN(c2ncnc3c2c(C(F)(F)F)cn3-c2cc(C#N)ccn2)[C@@H](C)CN1C(=O)OC1(C(F)(F)F)CCC1 [Compound 604, 1-(trifluoromethyl)cyclobutyl (2R,5S)-4-(7-(4-cyanopyridin-2-yl)-5-(trifluoromethyl)-7H-pyrrolo[2,3-d]pyrimidin-4-yl)-2,5-dimethylpiperazine-1-carboxylate]
TRPML1
  EC50: < 100 nM
TRPML2
  EC50: 100 to 500 nM
TRPML3
  EC50: < 100 nM

## CC(C)(C)OC(=O)N1CCN(c2ncnc3c2c(-c2ccccc2F)cn3-c2cc(C#N)ccn2)C2CC21 (stereo not drawn) [Compound 412]
TRPML1; fluorescent calcium assay
  EC50: 100 to 500 nM
TRPML2; fluorescent calcium assay
  EC50: 100 to 500 nM
TRPML3; fluorescent calcium assay
  EC50: < 100 nM

## Cc1cn(-c2cncc(F)c2)c2ncnc(N3C[C@@H](C)N(C(=O)OC(C)(C)C)C[C@@H]3C)c12 [Compound 672, tert-butyl (2R,5S)-4-(7-(5-fluoropyridin-3-yl)-5-methyl-7H-pyrrolo[2,3-d]pyrimidin-4-yl)-2,5-dimethylpiperazine-1-carboxylate]
TRPML1
  EC50: 100 to 500 nM
TRPML2
  EC50: 500 to 2000 nM
TRPML3
  EC50: 100 to 500 nM

## C[C@H]1CN(C(=O)OC(C)(C)C)CCN1c1ncnc2c1c(C1CC1(F)F)cn2-c1cccc(C#N)c1 (stereo partly drawn) [Compound 376]
TRPML1; fluorescent calcium assay
  EC50: < 100 nM
TRPML2; fluorescent calcium assay
  EC50: 100 to 500 nM
TRPML3; fluorescent calcium assay
  EC50: < 100 nM

## Cc1cn(-c2cc(F)cc(F)c2)c2ncnc(N3CCN(C(=O)OC(C)(C)C)C[C@@H]3C)c12 [Compound 687, tert-butyl (S)-4-(7-(3,5-difluorophenyl)-5-methyl-7H-pyrrolo[2,3-d]pyrimidin-4-yl)-3-methylpiperazine-1-carboxylate]
TRPML1
  EC50: < 100 nM
TRPML2
  EC50: 100 to 500 nM
TRPML3
  EC50: < 100 nM

## C[C@H]1CN(C(=O)OC(C)(C)C)CCN1c1ncnc2c1c(N1CCCC1=O)cn2-c1cccc(Cl)c1 [Compound 309, tert-butyl (S)-4-(7-(3-chlorophenyl)-5-(2-oxopyrrolidin-1-yl)-7H-pyrrolo[2,3-d]pyrimidin-4-yl)-3-methylpiperazine-1-carboxylate]
TRPML1; fluorescent calcium assay
  EC50: > 2000 nM
TRPML2; fluorescent calcium assay
  EC50: > 2000 nM
TRPML3; fluorescent calcium assay
  EC50: 500 to 2000 nM

## CC(C)c1cn(-c2cc(C#N)ccn2)c2ncnc(N3C[C@@H](C)N(C(=O)OC(C)(C)C)C[C@@H]3C)c12 [Compound 700, tert-butyl (2R,5S)-4-(7-(4-cyanopyridin-2-yl)-5-isopropyl-7H-pyrrolo[2,3-d]pyrimidin-4-yl)-2,5-dimethylpiperazine-1-carboxylate]
TRPML1
  EC50: < 100 nM
TRPML2
  EC50: 100 to 500 nM
TRPML3
  EC50: < 100 nM

## COc1cncc(-n2cc(C3CC3)c3c(N4CCN(C(=O)OC(C)(C)C)C[C@@H]4C)ncnc32)c1 [Compound 106, tert-butyl (S)-4-(5-cyclopropyl-7-(5-methoxypyridin-3-yl)-7H-pyrrolo[2,3-d]pyrimidin-4-yl)-3-methylpiperazine-1-carboxylate]
TRPML1; fluorescent calcium assay
  EC50: 100 to 500 nM
TRPML2; fluorescent calcium assay
  EC50: 500 to 2000 nM
TRPML3; fluorescent calcium assay
  EC50: 100 to 500 nM

## CC(C)(C)OC(=O)N1CCN(c2ncnc3c2c(C(F)(F)F)cn3-c2cc(C#N)ccn2)C(C)(C)C1 [Compound 528, tert-butyl 4-(7-(4-cyanopyridin-2-yl)-5-(trifluoromethyl)-7H-pyrrolo[2,3-d]pyrimidin-4-yl)-3,3-dimethylpiperazine-1-carboxylate]
TRPML1
  EC50: 100 to 500 nM
TRPML2
  EC50: < 100 nM
TRPML3
  EC50: < 100 nM

## CCN(CC)c1cn(-c2cc(C#N)ccn2)c2ncnc(N3CCN(C(=O)OC(C)(C)C)C[C@@H]3C)c12 [Compound 424, tert-butyl (S)-4-(7-(4-cyanopyridin-2-yl)-5-(diethylamino)-7H-pyrrolo[2,3-d]pyrimidin-4-yl)-3-methylpiperazine-1-carboxylate]
TRPML1; fluorescent calcium assay
  EC50: < 100 nM
TRPML2; fluorescent calcium assay
  EC50: 100 to 500 nM
TRPML3; fluorescent calcium assay
  EC50: < 100 nM

## C[C@@H]1CN(c2ncnc3c2c(N2CCC2)cn3-c2cccc(Cl)c2)[C@@H](C)CN1C(=O)OC(C)(C)C [Compound 490, tert-butyl (2R,5S)-4-(5-(azetidin-1-yl)-7-(3-chlorophenyl)-7H-pyrrolo[2,3-d]pyrimidin-4-yl)-2,5-dimethylpiperazine-1-carboxylate]
TRPML1; fluorescent calcium assay
  EC50: < 100 nM
TRPML2; fluorescent calcium assay
  EC50: < 100 nM
TRPML3; fluorescent calcium assay
  EC50: < 100 nM

## C[C@@H]1CN(c2ncnc3c2c(C2CC2)cn3-c2cc(F)c(F)c(F)c2)CCN1C(=O)OC(C)(C)C [Compound 204, tert-butyl (R)-4-(5-cyclopropyl-7-(3,4,5-trifluorophenyl)-7H-pyrrolo[2,3-d]pyrimidin-4-yl)-2-methylpiperazine-1-carboxylate]
TRPML1; fluorescent calcium assay
  EC50: < 100 nM
TRPML2; fluorescent calcium assay
  EC50: 100 to 500 nM
TRPML3; fluorescent calcium assay
  EC50: < 100 nM

## C[C@H]1CN(C(=O)OC(C)(C)C)CCN1c1ncnc2c1c(C1(C)CC1)cn2-c1cccc(C#N)c1 [Compound 402, tert-butyl (S)-4-(7-(3-cyanophenyl)-5-(1-methylcyclopropyl)-7H-pyrrolo[2,3-d]pyrimidin-4-yl)-3-methylpiperazine-1-carboxylate]
TRPML1; fluorescent calcium assay
  EC50: < 100 nM
TRPML2; fluorescent calcium assay
  EC50: 500 to 2000 nM
TRPML3; fluorescent calcium assay
  EC50: < 100 nM

## C[C@H]1CN(C(=O)OC(C)(C)C)CCN1c1ncnc2c1c(-n1ccnc1)cn2-c1cccc(Cl)c1 [Compound 323, tert-butyl (S)-4-(7-(3-chlorophenyl)-5-(1H-imidazol-1-yl)-7H-pyrrolo[2,3-d]pyrimidin-4-yl)-3-methylpiperazine-1-carboxylate]
TRPML1; fluorescent calcium assay
  EC50: 100 to 500 nM
TRPML2; fluorescent calcium assay
  EC50: > 2000 nM
TRPML3; fluorescent calcium assay
  EC50: < 100 nM

## C[C@H]1CN(C(=O)OC(C)(C)C)CCN1c1ncnc2c1c(N1CCCC1)cn2-c1cccc(Cl)c1 [Compound 210, tert-Butyl (S)-4-(7-(3-chlorophenyl)-5-(pyrrolidin-1-yl)-7H-pyrrolo[2,3-d]pyrimidin-4-yl)-3-methylpiperazine-1-carboxylate]
TRPML1; fluorescent calcium assay
  EC50: < 100 nM
TRPML2; fluorescent calcium assay
  EC50: < 100 nM
TRPML3; fluorescent calcium assay
  EC50: < 100 nM

## C[C@@H]1CN(C(=O)OC(C)(C)C(F)(F)F)CCN1c1ncnc2c1c(C1CC1)cn2-c1ccc(Cl)cc1 [Compound 141, 1,1,1-trifluoro-2-methylpropan-2-yl (R)-4-(7-(4-chlorophenyl)-5-cyclopropyl-7H-pyrrolo[2,3-d]pyrimidin-4-yl)-3-methylpiperazine-1-carboxylate]
TRPML1; fluorescent calcium assay
  EC50: < 100 nM
TRPML2; fluorescent calcium assay
  EC50: 100 to 500 nM
TRPML3; fluorescent calcium assay
  EC50: < 100 nM
